Test results from ChEMBL document CHEMBL5537161, “Structure-Guided Design, Synthesis, and Antivirulence Assessment of Covalent Staphylococcus aureus Sortase A Inhibitors” (J Med Chem, 2024).
Activity calls are given as the source filed them. No cut-off for these calls is given here.

What was measured:
[1] = Toxicity in Galleria mellonella assessed as change in color at 60 mg/kg measured after 120 hrs; type: organism-based; settings: in vivo
[2] = tested on: Staphylococcus aureus; assay: Bactericidal activity against Staphylococcus aureus Newman assessed as reduction in bacterial growth incubated for 16 to 18 hrs; type: functional; settings: time 16-18 hrs
[3] = target: T1, Sortase A (Staphylococcus aureus, UniProt Q9S446, N24DEL); assay: Inhibition of Staphylococcus aureus Sortase A N24 deletion mutant transpeptidation using IsdA64-323 as substrate preincubated for 20 mins followed by substrate addition and measured after 1.5 hrs by SDS-PAGE analysis
[4] = tested on: Staphylococcus aureus; assay: Antivirulence activity against Staphylococcus aureus Newman assessed as reduction in abundance of anchored SpA in bacterial envelope by Western blotting analysis; type: functional, organism-based; settings: dose 6.25-100 µM
[5] = tested on: Staphylococcus aureus; assay: Inhibition of Staphylococcus aureus USA300 biofilm formation incubated for 14 hrs by Crystal violet staining based assay; type: functional, organism-based; settings: dose 12.5-100 µM
[6] = tested on: Staphylococcus aureus; assay: Antibacterial activity against Staphylococcus aureus USA300 assessed as reduction in bacterial growth at 100 uM incubated for 14 hrs by microplate reader assay; type: functional, organism-based
[7] = tested on: Staphylococcus aureus; assay: Antibacterial activity against Staphylococcus aureus Newman assessed as reduction in bacterial growth at 100 uM incubated for 14 hrs by microplate reader assay; type: functional, organism-based
[8] = Inhibition of Streptococcus pyogenes Sortase A N81 deletion mutant transpeptidation using IsdA64-323 as substrate preincubated for 20 mins followed by substrate addition and measured after 1.5 hrs by SDS-PAGE analysis
[9] = tested on: Staphylococcus aureus; assay: Antibacterial activity against Staphylococcus aureus Newman infected in Galleria mellonella assessed as increase in larvae survival at 30 mg/kg measured every 24 hrs for 5 days; type: functional; settings: time 5 day
[10] = tested on: Streptococcus pyogenes; assay: Irreversible inhibition of Streptococcus pyogenes Sortase A N81 deletion mutant preincubated with compound for 1 to 60 mins followed by substrate addition by FRET based assay; settings: time 1-60 min, TDE = time-dependent effect
[11] = tested on: Sortase A (Staphylococcus aureus), Q9S446 [UNDEFINED MUTATION]; assay: Irreversible inhibition of Staphylococcus aureus sortase A N24 deletion mutant preincubated with compound for 1 to 60 mins followed by substrate addition by FRET based assay; settings: time 1-60 min, TDE = time-dependent effect
[12] = tested on: Staphylococcus aureus; assay: Antibacterial activity against Staphylococcus aureus Newman infected in Galleria mellonella assessed as reduction in melanization at 200 uM pretreated with compound followed by larvae infection measured after 24 hrs; type: functional, organism-based
[13] = target: T2, Cathepsin B (Homo sapiens, UniProt P07858); assay: Inhibition of cathepsin B (unknown origin) at 2 uM using Cbz-Phe-Arg-AMC as substrate preincubated for 5 mins followed by substrate addition by fluorescence based assay
[14] = tested on: Staphylococcus aureus; assay: Antibacterial activity against Staphylococcus aureus USA300 infected in Galleria mellonella assessed as increase in larvae survival at 30 mg/kg measured every 24 hrs for 5 days; type: functional; settings: time 5 day
[15] = tested on: Streptococcus pyogenes; assay: Inhibition of Streptococcus pyogenes Sortase A N81 deletion mutant transpeptidation assessed as thermal stabilization by measuring change in melting temperature at 80 uM incubated for 15 mins by Nano-DSF assay
[16] = Toxicity in Galleria mellonella larvae assessed as change in appearance at 60 mg/kg measured after 120 hrs; type: organism-based; settings: in vivo
[17] = tested on: Staphylococcus aureus; assay: Antibacterial activity against Staphylococcus aureus USA300 infected in Galleria mellonella assessed as reduction in melanization at 200 uM pretreated with compound followed by larvae infection measured after 24 hrs; type: functional, organism-based
[18] = target: T1, Sortase A; assay: Inhibition of Staphylococcus aureus sortase A N24 deletion mutant using Abz-LPATG-Dnp as substrate preincubated for 20 mins followed by substrate addition by FRET assay
[19] = Toxicity in Galleria mellonella larvae assessed as effect on survival at 60 mg/kg measured after 120 hrs; type: organism-based; settings: in vivo
[20] = target: T3, Procathepsin L (Homo sapiens, UniProt P07711); assay: Inhibition of cathepsin L (unknown origin) at 2 uM using Cbz-Phe-Arg-AMC as substrate preincubated for 5 mins followed by substrate addition by fluorescence based assay
Target sequence in this assay (P07711 114-333 limits assumed): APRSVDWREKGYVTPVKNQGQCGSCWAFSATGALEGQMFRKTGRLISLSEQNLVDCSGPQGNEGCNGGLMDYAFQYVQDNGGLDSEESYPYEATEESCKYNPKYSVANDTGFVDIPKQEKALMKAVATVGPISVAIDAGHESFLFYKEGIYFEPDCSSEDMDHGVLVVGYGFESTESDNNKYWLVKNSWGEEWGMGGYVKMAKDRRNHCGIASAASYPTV

[21] = tested on: Sortase A (Staphylococcus aureus), Q9S446 [UNDEFINED MUTATION]; assay: Inhibition of Staphylococcus aureus Sortase A N24 deletion mutant transpeptidation assessed as thermal stabilization by measuring change in melting temperature at 80 uM incubated for 15 mins by Nano-DSF assay
[22] = tested on: Staphylococcus aureus; assay: Antivirulence activity against Staphylococcus aureus Newman assessed as reduction in abundance of Sbi at 6.25 to 100 uM by Western blotting analysis; type: functional, organism-based; settings: dose 6.25-100 µM
[23] = tested on: Staphylococcus aureus; assay: Inhibition of Staphylococcus aureus Newman biofilm formation incubated for 14 hrs by Crystal violet staining based assay; type: functional, organism-based; settings: dose 12.5-100 µM
[24] = target: T1, Sortase A; assay: Covalent inhibition of Staphylococcus aureus sortase A N24 deletion mutant assessed as inactivation constant incubated for 60 mins
[25] = tested on: Streptococcus pyogenes; assay: Covalent inhibition of Streptococcus pyogenes Sortase A N81 deletion mutant assessed as inactivation rate constant incubated for 60 mins
[26] = tested on: Sortase A (Staphylococcus aureus), Q9S446 [UNDEFINED MUTATION]; assay: Covalent inhibition of Staphylococcus aureus sortase A N24 deletion mutant assessed as inactivation rate constant incubated for 60 mins
[27] = tested on: Streptococcus pyogenes; assay: Covalent inhibition of Streptococcus pyogenes Sortase A N81 deletion mutant assessed as ratio of Kinact to Ki incubated for 60 mins
[28] = Covalent inhibition of Streptococcus pyogenes Sortase A N81 deletion mutant assessed as inactivation constant incubated for 60 mins
[29] = tested on: Sortase A (Staphylococcus aureus), Q9S446 [UNDEFINED MUTATION]; assay: Covalent inhibition of Staphylococcus aureus sortase A N24 deletion mutant assessed as ratio of Kinact to Ki incubated for 60 mins
[30] = target: T3, Procathepsin L; assay: Inhibition of cathepsin L (unknown origin) using Cbz-Phe-Arg-AMC as substrate preincubated for 5 mins followed by substrate addition by fluorescence based assay
Target sequence in this assay (P07711 whole entry): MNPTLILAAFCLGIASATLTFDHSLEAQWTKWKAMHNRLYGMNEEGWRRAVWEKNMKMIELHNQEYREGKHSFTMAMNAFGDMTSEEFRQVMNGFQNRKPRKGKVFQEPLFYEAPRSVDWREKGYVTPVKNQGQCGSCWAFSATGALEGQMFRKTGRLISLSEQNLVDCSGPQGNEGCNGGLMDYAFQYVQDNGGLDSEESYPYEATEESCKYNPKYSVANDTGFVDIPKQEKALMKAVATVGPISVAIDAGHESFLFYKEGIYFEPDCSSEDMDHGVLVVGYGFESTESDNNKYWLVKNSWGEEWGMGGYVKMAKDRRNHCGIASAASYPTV

[31] = target: T2, Cathepsin B; assay: Inhibition of cathepsin B (unknown origin) using Cbz-Phe-Arg-AMC as substrate preincubated for 5 mins followed by substrate addition by fluorescence based assay

Compound | Activity [1] | MIC [2] [µg/mL] | IC50 [3] [nM] | Activity [4] | inhibition [5] | Activity [6] | Activity [7] | IC50 [8] [nM] | Activity [9] [%] | inhibition [10] | inhibition [11] | Activity [12] | inhibition [13] | Activity [14] [%] | ΔTm [15] [°C] | Activity [16] | Activity [17] | IC50 [18] [nM] | Activity [19] | inhibition [20] | other results
COc1ccc(/C=C/C=C2C(=O)NC(=O)NC2=O)cc1 | Non-Toxic | > 128 | 7400 | Active | Dose-Dependent Effect | inactive | inactive | 3400 | <40 | Tde | Tde | Active | Active | 40 | 9.3 | Non-Toxic | Active | 1000 | Non-Toxic | Active | ΔTm [21]: 4.5 °C; Activity [22]: Active; inhibition [23]: Dose-Dependent Effect
O=C1NC(=O)C(=C/C=C/c2ccc(OCc3ccc(F)cc3)cc2)C(=O)N1 | Non-Toxic | > 128 | 5200 | Active | Dose-Dependent Effect | inactive | inactive | 4900 | 60 | Tde | Tde | Active | Active | 40 | 9.3 | Non-Toxic | Active | 600 | Non-Toxic | Active | Ki [24]: 1600 nM; Kinact [25]: 1170 min⁻¹; Kinact [26]: 130 min⁻¹; Ratio [27]: 81.1 µM⁻¹ min⁻¹; Ki [28]: 5400 nM; Ratio [29]: 216 µM⁻¹ min⁻¹; IC50 [30]: 39.7 nM; IC50 [31]: 36.1 nM; ΔTm [21]: 4.5 °C; Activity [22]: Active; inhibition [23]: Dose-Dependent Effect
